Assay results taken from patent publication US7652037B2, “Methods of lowering lipid levels in a mammal” (City Of Hope, priority 2003, dated 2010).
Marks after values point to notes of the source that are not given here.

Tests used:
[1] = Carbonyl trapping activity; conditions: compared with AG, PM and LR-90
STZ-Diabetic Rats [2] = assay: Plasma lipids and plasma lipid hydroperoxides in STZ-diabetic rats (Example 13); type: in vivo, rat; conditions: for reduction of plasma lipid hydroperoxides: diabetic animals; for reduction in plasma cholesterol / reduction in plasma triglycerides: diabetic rats compared with untreated diabetic animals; for plasma cholesterol / plasma triglycerides: treated diabetic rats, means/SEM; for plasma cholesterol: untreated diabetic 136±13; for plasma triglycerides: untreated diabetic 598±110
Experimental: (§1) Diabetes was induced in male Sprague-Dawley rats by a single i.p. injection of STZ (65 mg/kg in citrate buffer, pH 4.5) after an overnight fast. Non-diabetic animals were injected with citrate buffer only. One week after STZ injection, only animals with >20 mmol/L plasma glucose were classified as diabetic and included in the study. Diabetic rats were divided randomly into the following treatment groups: diabetic untreated (D); and two diabetic treatment groups, receiving either LR-9 (D+LR-9) or LR-74 (D+LR-74) at 50 mg/L in drinking water. Three non-diabetic groups were studied concurrently: one untreated non-diabetic group (ND), and two non-diabetic groups treated with either LR-9 (ND+LR-9) or LR-74 (ND+LR-74) at 50 mg/L in drinking water.
At 32 weeks of the study, the rats were killed by over-anesthetization with isoflourane and cardiac puncture. Blood samples were collected from each animal and transferred accordingly into heparinized vacutainer tubes and were later centrifuged for plasma isolation. Aliquots of these plasma samples were stored at −70° C. until the time of analysis. Kidneys were removed immediately, decapsulated and rinsed in PBS buffer. Sections of the left kidneys were stored in 10% neutral buffered formalin for subsequent microscopic examinations and AGE immunohistochemistry. Sections of abdominal skin and tail of each individual rat were removed, rinsed in PBS buffer and stored at −70° C. for subsequent AGE quantification and crosslinking analyses.

STZ-Diabetic Rats [3] = assay: Body weight and glycemia in STZ-diabetic and control rats (Example 1); type: in vivo, rat; conditions: for Body Weight / HbA1c / Plasma Glucose: mean ± SD; for effect on plasma glucose and glycated hemoglobin / weight compared to the diabetic control rats: diabetic rats; for weight compared to the diabetic control rats: only LR-90 statistically significant
Experimental: Male Sprague-Dawley rats (about 175 to 200 g) were adapted for one week prior to treatment, then rendered diabetic by intra-peritoneal injection of STZ (65 mg/kg in citrate buffer, pH 4.5) after an overnight fast. Control (non-diabetic) animals were injected with the buffer only. Diabetes was confirmed by measuring the plasma glucose concentrations 7 days after Streptozotocin (STZ)-injection. Only animals with a plasma glucose concentration greater than 20 mmol were classified as diabetic and used in the study. These diabetic rats were divided randomly into an untreated diabetic control group and a diabetic treatment group. The treatment group received an LR compound at 50 mg/l in their drinking water throughout the duration of the study (32 weeks for LR-90; 30 weeks for LR-9 and LR-74). All animals were housed individually and were given free access to food and water.
Blood (from the tail vein) and urine samples were collected from rats for glycemic control analysis and albuminuria measurements. Glycemia was monitored every 8 weeks by measuring plasma glucose and glycated hemoglobin. Plasma or serum also was tested for total cholesterol and total triglycerides. Progression of renal dysfunction was assessed by measuring urinary albumin to creatinine ratio (UA/Cr) and serum or plasma creatinine. For measurement of urinary albumin and creatinine concentrations, rats were housed in metabolic cages for 24 hours and urine was collected in a collection beaker with several drops of toluene to inhibit microbial growth.
At the end of study, the rats were weighed and anaesthetized with isoflourane and blood was drawn by heart puncture and transferred into heparinized and non-heparinized vacutainer tubes on ice. These blood samples were later centifuged for plasma and serum collection respectively, and stored at −70° C. until the time of analysis. Rats were killed by over-anesthetization and cardiac puncture and the kidneys were removed immediately, weighed, decapsulated and rinsed in PBS buffer. Sections of the kidneys were stored in 10% NBF for subsequent microscopic examinations and immunohistochemistry. The tail of each individual rat was cut, removed and stored in 50 mL conical tubes at −70° C.
Statistical analyses of data presented in this example and the following examples were first analyzed by ANOVA and post-hoc comparisons between group means were analyzed using unpaired Student's t test. A p value of less than 0.05 was considered statistically significant. Data are presented as means±SD.

STZ-Diabetic Rats [4] = assay: Renal parameters in STZ-diabetic rats treated with LR-9 or LR-74 (Example 10); type: in vivo, rat; conditions: for Kidney/Body wt. Ratio / Plasma Creatinine / Urinary Albumin: 50 mg/L in drinking water, 32 weeks; for decrease of elevated plasma creatinine concentrations: diabetic rats
Experimental: as §1
(§2) Both plasma glucose and body weight were checked before administration of the drug, and no differences were detected among the three diabetic treatment groups or among the three non-diabetic groups. All animals were housed individually and were given free access to food and water. Glycemic control and body weights were monitored periodically. To limit hyperglycemia and ensure that animals maintained body weight, diabetic animals received 3 IU of ultralente insulin two to three times per week. The study was carried out over 32 weeks. Progression of renal dysfunction was assessed by measuring urinary albumin and plasma creatinine concentrations according to known methods. Figarola et al., Diabetologia 46:1140-115, 2003.

STZ-Diabetic Rats [5] = assay: Body weight and glycemia in STZ-diabetic rats (Examples 10 and 14); type: in vivo, rat; conditions: for Body Weight / HbA1c / Plasma Glucose: 50 mg/L in drinking water, 32 weeks; for effect on hyperglycemia and body weight gains: either ND or D rats
Experimental: as §1, §2
as §2, with “Rats were treated and divided into treatment groups as described in Example 10. Both” for “Both”, “weeks.” for “weeks. Progression of renal dysfunction was assessed by measuring urinary albumin and plasma creatinine concentrations according to known methods. Figarola et al., Diabetologia 46:1140-115, 2003.”

Human LDL = assay: Cu++-mediated oxidation of LDL, TBARS (Example 9); conditions: 5 μM CuCl2, 10-250 μM compound, 5 hours, 37° C.
Experimental: The ability of the LR compounds to inhibit lipid peroxidation was tested using Cu^++-mediated lipid oxidation, a common in vitro model for studies on lipoxidative modifications of proteins. The effects of the LR compounds on lipid peroxidation were studied using Cu^++-mediated oxidation of LDL. Human LDL (50 μg of protein/mL) was incubated at 37° C. in chelex-treated PBS buffer alone or in the presence of 5 μM CuCl2 or 5 μM CuCl2 plus various concentrations of the inhibitor compounds (10-250 μM). After 5 hours of incubation, the amount of thiobarbituric acid reactive substances (expressed as malondialdehyde (MDA) equivalents) generated in the reaction mixture was calculated according to methods described by Dillon et al., Life Sci. #72:1583-1594, 2003. Briefly, aliquots from each sample were precipitated with 20% trichloroacetic acid, centrifuged and an equal volume of 1% thiobarbituric acid was added to the supernatant. The samples then were heated to 95° C. for 10 minutes, and upon cooling, the absorbance was read at 532 nm. Hydrolyzed tetraethoxypropane was used as a standard for the MDA equivalent calculation.

[6] = STZ-diabetic (D) rats, 50 mg/l in drinking water, 30 weeks
[7] = non-diabetic (ND) rats, 50 mg/l in drinking water, 30 weeks
[8] = STZ-diabetic (D) rats, LR-90 50 mg/l in drinking water, 32 weeks
[9] = non-diabetic (ND) rats, LR-90 50 mg/l in drinking water, 32 weeks

## CC(C)(Oc1ccc(NC(=O)c2ccc3ccccc3c2)cc1)C(=O)O [LR-9, 4-(2-napthylcarboxamido) phenoxyisobutyric acid]
[1]
  carbonyl trapping activities: weaker
STZ-Diabetic Rats [2]
  reduction of plasma lipid hydroperoxides: 35%
  reduction in plasma cholesterol: ≤ 30%
  reduction in plasma triglycerides: ≤ 60%
  plasma cholesterol: 96 ± 5 mg/dL
  plasma triglycerides: 239 ± 50 mg/dL
STZ-Diabetic Rats [3]; [6]
  Body Weight: 288.0 ± 71.8 g
  HbA1c: 1.95 ± 0.22^b %
  Plasma Glucose: 27.1 ± 1.3 mmol/L
STZ-Diabetic Rats [3]; 50 mg/l in drinking water
  effect on plasma glucose and glycated hemoglobin: did not affect
  weight compared to the diabetic control rats: moderate increase in weight
STZ-Diabetic Rats [3]; [7]
  Body Weight: 681.0 ± 9.3 g
  HbA1c: 0.90 ± 0.08%
  Plasma Glucose: 8.2 ± 0.9 mmol/L
STZ-Diabetic Rats [4]; diabetic (D) rats
  Kidney/Body wt. Ratio: 1.58 ± 0.11 g/100 g
  Plasma Creatinine: 1.79 ± 0.39 mg/dL
  Urinary Albumin: 18.0 ± 3.7 mg/42 hr
STZ-Diabetic Rats [4]
  decrease of elevated plasma creatinine concentrations: ~50%
STZ-Diabetic Rats [4]; non-diabetic (ND) rats
  Kidney/Body wt. Ratio: 0.51 ± 0.01 g/100 g
  Plasma Creatinine: 0.42 ± 0.02 mg/dL
  Urinary Albumin: 4.8 ± 1.2 mg/42 hr
STZ-Diabetic Rats [5]; diabetic (D) rats
  Body Weight: 288.0 ± 29.3 g
  HbA1c: 2.0 ± 0.1 %
  Plasma Glucose: 27.1 ± 0.5 mmol/L
STZ-Diabetic Rats [5]
  effect on hyperglycemia and body weight gains: no effect
STZ-Diabetic Rats [5]; non-diabetic (ND) rats
  Body Weight: 681.0 ± 4.6 g
  HbA1c: 0.9 ± 0.1%
  Plasma Glucose: 8.2 ± 0.5 mmol/L

## CC(Oc1cccc2cccnc12)C(=O)O (stereo not drawn) [LR-74, 2-(8-quinolinoxy) propionic acid]
Human LDL
  inhibition of Cu++-mediated LDL oxidation (lipid peroxidation): better than AG
[1]
  carbonyl trapping activities: weaker
STZ-Diabetic Rats [2]
  reduction of plasma lipid hydroperoxides: 45%
  reduction in plasma cholesterol: approximately 30%
  reduction in plasma triglycerides: ~70%
  plasma cholesterol: 93 ± 2 mg/dL
  plasma triglycerides: 161 ± 29 mg/dL
STZ-Diabetic Rats [3]; [6]
  Body Weight: 314.7 ± 53.0 g
  HbA1c: 2.10 ± 0.30%
  Plasma Glucose: 26.9 ± 1.5 mmol/L
STZ-Diabetic Rats [3]; 50 mg/l in drinking water
  effect on plasma glucose and glycated hemoglobin: did not affect
  weight compared to the diabetic control rats: moderate increase in weight
STZ-Diabetic Rats [3]; [7]
  Body Weight: 744.0 ± 51.8 g
  HbA1c: 0.87 ± 0.12%
  Plasma Glucose: 6.8 ± 0.8 mmol/L
STZ-Diabetic Rats [4]; diabetic (D) rats
  Kidney/Body wt. Ratio: 1.52 ± 0.10 g/100 g
  Plasma Creatinine: 1.64 ± 0.44 mg/dL
  Urinary Albumin: 14.3 ± 3.7 mg/42 hr
STZ-Diabetic Rats [4]
  decrease of elevated plasma creatinine concentrations: ~50%
STZ-Diabetic Rats [4]; non-diabetic (ND) rats
  Kidney/Body wt. Ratio: 0.52 ± 0.01 g/100 g
  Plasma Creatinine: 0.42 ± 0.03 mg/dL
  Urinary Albumin: 4.6 ± 1.2 mg/42 hr
STZ-Diabetic Rats [5]; diabetic (D) rats
  Body Weight: 314.7 ± 21.6 g
  HbA1c: 2.1 ± 0.1 %
  Plasma Glucose: 26.9 ± 0.6 mmol/L
STZ-Diabetic Rats [5]
  effect on hyperglycemia and body weight gains: no effect
STZ-Diabetic Rats [5]; non-diabetic (ND) rats
  Body Weight: 744.0 ± 25.8 g
  HbA1c: 0.9 ± 0.1%
  Plasma Glucose: 6.8 ± 0.4 mmol/L

## methylene bis(4,4′-(2-chlorophenylureidophenoxyisobutyric acid) [LR-90]
Human LDL
  inhibition of Cu++-mediated LDL oxidation (lipid peroxidation): better than AG
STZ-Diabetic Rats [3]; [8]
  Body Weight: 337.6 ± 26.6^c g
  HbA1c: 3.3 ± 0.4%
  Plasma Glucose: 28.9 ± 3.4 mmol/L
STZ-Diabetic Rats [3]; 50 mg/l in drinking water
  effect on plasma glucose and glycated hemoglobin: did not affect
  weight compared to the diabetic control rats: moderate increase in weight
STZ-Diabetic Rats [3]; [9]
  Body Weight: 723.0 ± 21.9 g
  HbA1c: 1.5 ± 0.1%
  Plasma Glucose: 6.8 ± 0.7 mmol/L
